Reference: patent US7854753B2, “Photokinetic delivery of biologically active substances using pulsed incoherent light” (Photokinetix, Inc., priority 2002, dated 2010)

Assay: Franz skin diffusion cell permeation (percutaneous absorption) under ambient, natural or pulsed incoherent LED light
Conditions: for Permeation Dark: ambient light absent; for Ctrl: ambient light only; for Ctrl-TiO2: ambient light, 2% TiO2; for Ctrl-TiO2/1.7 / Ctrl-TiO2/9.7 / Ctrl-TiO2/24: Table 7, 350 nm series; for Ctrl-TiO2/1.7: 2% TiO2, 1.7 cps; for Ctrl-TiO2/9.7: 2% TiO2, 9.7 cps; for Ctrl-TiO2/24: 2% TiO2, 24 cps; for 350/1.7 / 350/9.7 / 350/24: Table 7; for 350/1.7 / 405/1.7: 1.7 cps; for 350/9.7 / 405/9.7: 9.7 cps; for 350/24 / 405/24: 24 cps; for 405/1.7 / 405/9.7 / 405/24: Table 10; for Permeation Ctrl: ambient cool fluorescent light only, 260-750 nm, 120 cps; for Permeation Ctrl-TiO2: ambient fluorescent light, sample with 2% (w/w) rutile TiO2

## CCCCCCCCCCCCCCCC(=O)OC[C@H](O)[C@H]1OC(=O)C(O)=C1O [Compound 4, Ascorbyl palmitate]
Dark control
  Permeation Dark: 0.00 μg/0.64 cm^2/25 hrs
Table 7 (350 nm series)
  Ctrl: 263.48
  Ctrl-TiO2: 260.00
  Ctrl-TiO2/1.7: 289.57
  Ctrl-TiO2/9.7: 312.06
  Ctrl-TiO2/24: 180.88
350 nm
  350/1.7: 160.87
  350/9.7: 0.00
  350/24: 151.00

## O=C1O[C@H]([C@@H](O)CO)C([O-])=C1OP(=O)([O-])[O-].[Na+].[Na+].[Na+] [Compound 2, Sodium ascorbyl phosphate]
Table 7 (350 nm series)
  Ctrl: 0.00
  Ctrl-TiO2: 0.00
  Ctrl-TiO2/1.7: 42.75
  Ctrl-TiO2/9.7: 6.48
  Ctrl-TiO2/24: 0.00
350 nm
  350/1.7: 3.33
  350/9.7: 0.00
  350/24: 0.00

## CC[C@H](C)[C@H](NC(=O)[C@H](Cc1ccc(O)cc1)NC(=O)[C@@H](NC(=O)[C@H](CCCNC(=N)N)NC(=O)[C@@H](N)CC(=O)O)C(C)C)C(=O)N[C@@H](Cc1cnc[nH]1)C(=O)N1CCC[C@H]1C(=O)N[C@@H](Cc1ccccc1)C(=O)O [Compound 15]
Dark control
  Permeation Dark: 42.80 μg/0.64 cm^2/25 hrs
405 nm
  405/1.7: 19.99
  405/9.7: 73.19
  405/24: 3.87
Table 10 peptides
  Ctrl: 0.00
  Permeation Ctrl: 0.00 μg/0.64 cm^2/25 hrs
  Permeation Ctrl-TiO2: 0.00 μg/0.64 cm^2/25 hrs

## CC(C)C[C@H](NC(=O)[C@H](Cc1ccccc1)NC(=O)CNC(=O)CNC(=O)[C@@H](N)Cc1ccc(O)cc1)C(=O)O [Compound 14, Leucine Enkephalin (Tyr-Gly-Gly-Phe-Leu)]
350 + TiO2, 24 cps vs Dark-TiO2
  % Permeation (percent increase or decrease vs dark baseline, equation 1): 8.58%
350 + TiO2, 80 cps vs Dark-TiO2
  % Permeation (percent increase or decrease vs dark baseline, equation 1): 39.43%
350 + TiO2, pulse rate 24 cps
  Permeation: 73.17 μg/cm^2/24 hrs
350 + TiO2, pulse rate 80 cps
  Permeation: 28.50 μg/cm^2/24 hrs
350 nm LED, pulse rate 24 cps
  Permeation: 84.44 μg/cm^2/24 hrs
350 nm LED, pulse rate 80 cps
  Permeation: 31.30 μg/cm^2/24 hrs
350 nm, 24 cps vs Dark
  % Permeation (percent increase or decrease vs dark baseline, equation 1): −21.59%
350 nm, 80 cps vs Dark
  % Permeation (percent increase or decrease vs dark baseline, equation 1): 72.36%
390 + TiO2, 24 cps vs Dark-TiO2
  % Permeation (percent increase or decrease vs dark baseline, equation 1): 54.21%
390 + TiO2, 80 cps vs Dark-TiO2
  % Permeation (percent increase or decrease vs dark baseline, equation 1): 55.14%
390 + TiO2, pulse rate 24 cps
  Permeation: 103.92 μg/cm^2/24 hrs
390 + TiO2, pulse rate 80 cps
  Permeation: 31.71 μg/cm^2/24 hrs
390 nm LED, pulse rate 24 cps
  Permeation: 108.49 μg/cm^2/24 hrs
390 nm LED, pulse rate 80 cps
  Permeation: 31.32 μg/cm^2/24 hrs
390 nm, 24 cps vs Dark
  % Permeation (percent increase or decrease vs dark baseline, equation 1): 0.74%
390 nm, 80 cps vs Dark
  % Permeation (percent increase or decrease vs dark baseline, equation 1): 72.47%
405 + TiO2, 24 cps vs Dark-TiO2
  % Permeation (percent increase or decrease vs dark baseline, equation 1): 322.29%
405 + TiO2, 80 cps vs Dark-TiO2
  % Permeation (percent increase or decrease vs dark baseline, equation 1): −35.47%
405 + TiO2, pulse rate 24 cps
  Permeation: 284.58 μg/cm^2/24 hrs
405 + TiO2, pulse rate 80 cps
  Permeation: 13.19 μg/cm^2/24 hrs
405 nm LED, pulse rate 24 cps
  Permeation: 87.52 μg/cm^2/24 hrs
405 nm LED, pulse rate 80 cps
  Permeation: 20.82 μg/cm^2/24 hrs
405 nm, 24 cps vs Dark
  % Permeation (percent increase or decrease vs dark baseline, equation 1): −18.73%
405 nm, 80 cps vs Dark
  % Permeation (percent increase or decrease vs dark baseline, equation 1): 14.65%
450 + TiO2, 24 cps vs Dark-TiO2
  % Permeation (percent increase or decrease vs dark baseline, equation 1): 158.04%
450 + TiO2, 80 cps vs Dark-TiO2
  % Permeation (percent increase or decrease vs dark baseline, equation 1): 45.45%
450 + TiO2, pulse rate 24 cps
  Permeation: 173.89 μg/cm^2/24 hrs
450 + TiO2, pulse rate 80 cps
  Permeation: 29.73 μg/cm^2/24 hrs
450 nm LED, pulse rate 24 cps
  Permeation: 29.25 μg/cm^2/24 hrs
450 nm LED, pulse rate 80 cps
  Permeation: 21.81 μg/cm^2/24 hrs
450 nm, 24 cps vs Dark
  % Permeation (percent increase or decrease vs dark baseline, equation 1): −72.84%
450 nm, 80 cps vs Dark
  % Permeation (percent increase or decrease vs dark baseline, equation 1): 20.10%
Dark control
  Permeation Dark: 41.68 μg/0.64 cm^2/25 hrs
Dark control, 24 cps series
  Permeation: 107.69 μg/cm^2/24 hrs
Dark control, 80 cps series
  Permeation: 18.16 μg/cm^2/24 hrs
Dark-TiO2 control (2% TiO2), 24 cps series
  Permeation: 67.39 μg/cm^2/24 hrs
Dark-TiO2 control (2% TiO2), 80 cps series
  Permeation: 20.44 μg/cm^2/24 hrs
Day (natural daylight, not pulsed), control of the 24 cps series
  Permeation: 37.31 μg/cm^2/24 hrs
Day (natural daylight, not pulsed), control of the 80 cps series
  Permeation: 20.89 μg/cm^2/24 hrs
Day vs Dark, 24 cps series
  % Permeation (percent increase or decrease vs dark baseline, equation 1): −65.35%
Day vs Dark, 80 cps series
  % Permeation (percent increase or decrease vs dark baseline, equation 1): 15.03%
Day-TiO2 (natural daylight, 2% TiO2, not pulsed), control of the 24 cps series
  Permeation: 46.85 μg/cm^2/24 hrs
Day-TiO2 (natural daylight, 2% TiO2, not pulsed), control of the 80 cps series
  Permeation: 18.64 μg/cm^2/24 hrs
Day-TiO2 vs Dark-TiO2, 24 cps series
  % Permeation (percent increase or decrease vs dark baseline, equation 1): −30.48%
Day-TiO2 vs Dark-TiO2, 80 cps series
  % Permeation (percent increase or decrease vs dark baseline, equation 1): −8.81%
405 nm
  405/1.7: 40.38
  405/9.7: 1.23
  405/24: 0.00
Table 10 peptides
  Ctrl: 0.00
  Permeation Ctrl: 0.00 μg/0.64 cm^2/25 hrs
  Permeation Ctrl-TiO2: 0.00 μg/0.64 cm^2/25 hrs

## O=C1O[C@H]([C@@H](O)CO)C(O)=C1O [Compound 3, Ascorbic Acid]
Table 7 (350 nm series)
  Ctrl: 147.49
  Ctrl-TiO2: 67.01
Table 8 (405 nm series)
  Ctrl: 557.96
  Ctrl-TiO2: 127.25
